This is an account of results in publication PMC12197363 (Viruses, 2025).

For test [1], the target named is T1, Norovirus 3CL^pro (Norovirus GII.4, UniProt P54634).
T1 sequence (P54634 1009-1189): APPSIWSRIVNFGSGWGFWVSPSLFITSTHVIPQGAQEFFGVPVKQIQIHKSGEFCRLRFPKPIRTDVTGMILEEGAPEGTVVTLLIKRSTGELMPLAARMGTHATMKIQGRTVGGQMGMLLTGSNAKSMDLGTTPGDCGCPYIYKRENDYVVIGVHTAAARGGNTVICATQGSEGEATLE
Briefly: Cell-based FlipGFP assay of 3CLpro inhibition. On the set-up: species or system Norovirus genotype GII.4.

Test [2] relates to Norovirus 3CL^pro. Briefly: Western blot of FlipGFP cleavage. The note with it: at higher inhibitor concentrations, compared with C139A control. It is filed as cell-based. A general note: A western blot detects proteins with antibodies after separation by electrophoresis.
A further test deals with VEGFR2. The following applies: quoted in Description column of Table S1; no reference given; cited from earlier work.
For a further test, the system named is c-Met. The note with it: quoted in Description column of Table S1; no reference given; cited from earlier work.

Read-outs that look alike come from different tables or passages of the source.

One may read the IC50 as the concentration that gives 50% inhibition. With `CC(C)C[C@H](NC(=O)OCc1ccccc1)C(=O)N[C@@H](CC1CCNC1=O)C(O)S(=O)(=O)O` (some centres unmarked) [GC376], on Norovirus 3CL^pro [1] (HEK293T cells co-transfected with 3CLpro-FlipGFP and 3CLpro, compound added 6 h, fluorescence read 24 h post-transfection, triplicate, read-out: IC50), the IC50 worked out at 2280 ± 170 nM. As to `O=c1[nH]c2ccccc2n1C1CCN(Cc2ccc(-c3[nH]c4cc5ncnc5cc4nc3-c3ccccc3)cc2)CC1` [Akt inhibitor VIII], inhibition on Norovirus 3CL^pro [1] was half-maximal at 590 ± 120 nM (IC50). On the same count and under the same terms, the figure for `O=C(c1ccc(Nc2nccc(-c3cc4ccccc4s3)n2)cc1)N1CCC(N2CCCC2)CC1` [IKK 16] is 5090 ± 160 nM. Regarding `CN(C)C1CCN(C(=O)c2ccc(NC(=O)Nc3ccc(-c4nc(N5CCOCC5)nc(N5CCOCC5)n4)cc3)cc2)CC1` [Gedatolisib], the “Proteolytic cleavage of FlipGFP (Western blot)” value in the test on Norovirus 3CL^pro [2] is given as “proteolytic cleavage was markedly reduced”. As to `CN1CCN(C2CCN(C(=O)Nc3cc(Oc4ccc(NC(=O)C5(C(=O)Nc6ccc(F)cc6)CC5)c(F)c4)ccn3)CC2)CC1` [Golvatinib], the IC50 in the test with VEGFR2 is 16 nM; in the test on c-Met, 14 nM. For `O=C(Nc1cccc(-c2nc(-c3ccc(NC(=O)c4cccnc4)cc3Cl)no2)c1)Nc1ccc(NC(=O)C2CC2)c(C(F)(F)F)c1` [EGFR-IN-8], the “Proteolytic cleavage of FlipGFP (Western blot)” value in the test on Norovirus 3CL^pro [2] is reported as “proteolytic cleavage was markedly reduced”. Further, inhibition at Norovirus 3CL^pro [1] was half-maximal at 290 ± 90 nM (IC50). On to `N#Cc1ccc(O[C@H]2CC[C@H](NC(=O)c3ccc(N4CCC(CN5CCN(c6cc7c(cc6F)C(=O)N(C6CCC(=O)NC6=O)C7=O)CC5)CC4)nn3)CC2)cc1Cl` (some centres unmarked) [Bavdegalutamide], for which the IC50 on Norovirus 3CL^pro [1] stood at 970 ± 240 nM. For the molecule `CCc1cc(Nc2nccc(-c3c(-c4ccc(OC)c(C(=O)Nc5c(F)cccc5F)c4)nc4ccccn34)n2)c(OC)cc1N1CCC(N2CCN(S(C)(=O)=O)CC2)CC1` [GSK1904529A], half-maximal inhibition against Norovirus 3CL^pro [1] (IC50) was put at 3940 ± 230 nM. Consider `CC(=O)N1CCC(c2cc(-c3ccc(NC(=O)c4cccn(-c5ccc(F)cc5)c4=O)cc3F)c3c(N)ncnn23)CC1` [TAM-IN-2], for which the 50% inhibitory concentration (IC50) against Norovirus 3CL^pro [1] turned out to be 1220 ± 440 nM.
